pIC50: −log10 of the molar value. The source made the active and inactive calls.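 How the source made its calls: active means IC50 at or below 20 µM; inactive means the rest.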 A value given as a limit tells only on which side of the number the result lay.

This assay addresses Fatty acid synthase (Homo sapiens) (UniProt P49327). Put plainly: inhibition of human FAS-TE enzyme activity – biochemical, kinetic fluorescence intensity, dose response, SAR follow-up (AID 652165). The following applies: recombinant FAS-TE, OMFH fluorogenic substrate.

Fatty acid synthase (Homo sapiens), sequence (P49327 whole entry, looked up): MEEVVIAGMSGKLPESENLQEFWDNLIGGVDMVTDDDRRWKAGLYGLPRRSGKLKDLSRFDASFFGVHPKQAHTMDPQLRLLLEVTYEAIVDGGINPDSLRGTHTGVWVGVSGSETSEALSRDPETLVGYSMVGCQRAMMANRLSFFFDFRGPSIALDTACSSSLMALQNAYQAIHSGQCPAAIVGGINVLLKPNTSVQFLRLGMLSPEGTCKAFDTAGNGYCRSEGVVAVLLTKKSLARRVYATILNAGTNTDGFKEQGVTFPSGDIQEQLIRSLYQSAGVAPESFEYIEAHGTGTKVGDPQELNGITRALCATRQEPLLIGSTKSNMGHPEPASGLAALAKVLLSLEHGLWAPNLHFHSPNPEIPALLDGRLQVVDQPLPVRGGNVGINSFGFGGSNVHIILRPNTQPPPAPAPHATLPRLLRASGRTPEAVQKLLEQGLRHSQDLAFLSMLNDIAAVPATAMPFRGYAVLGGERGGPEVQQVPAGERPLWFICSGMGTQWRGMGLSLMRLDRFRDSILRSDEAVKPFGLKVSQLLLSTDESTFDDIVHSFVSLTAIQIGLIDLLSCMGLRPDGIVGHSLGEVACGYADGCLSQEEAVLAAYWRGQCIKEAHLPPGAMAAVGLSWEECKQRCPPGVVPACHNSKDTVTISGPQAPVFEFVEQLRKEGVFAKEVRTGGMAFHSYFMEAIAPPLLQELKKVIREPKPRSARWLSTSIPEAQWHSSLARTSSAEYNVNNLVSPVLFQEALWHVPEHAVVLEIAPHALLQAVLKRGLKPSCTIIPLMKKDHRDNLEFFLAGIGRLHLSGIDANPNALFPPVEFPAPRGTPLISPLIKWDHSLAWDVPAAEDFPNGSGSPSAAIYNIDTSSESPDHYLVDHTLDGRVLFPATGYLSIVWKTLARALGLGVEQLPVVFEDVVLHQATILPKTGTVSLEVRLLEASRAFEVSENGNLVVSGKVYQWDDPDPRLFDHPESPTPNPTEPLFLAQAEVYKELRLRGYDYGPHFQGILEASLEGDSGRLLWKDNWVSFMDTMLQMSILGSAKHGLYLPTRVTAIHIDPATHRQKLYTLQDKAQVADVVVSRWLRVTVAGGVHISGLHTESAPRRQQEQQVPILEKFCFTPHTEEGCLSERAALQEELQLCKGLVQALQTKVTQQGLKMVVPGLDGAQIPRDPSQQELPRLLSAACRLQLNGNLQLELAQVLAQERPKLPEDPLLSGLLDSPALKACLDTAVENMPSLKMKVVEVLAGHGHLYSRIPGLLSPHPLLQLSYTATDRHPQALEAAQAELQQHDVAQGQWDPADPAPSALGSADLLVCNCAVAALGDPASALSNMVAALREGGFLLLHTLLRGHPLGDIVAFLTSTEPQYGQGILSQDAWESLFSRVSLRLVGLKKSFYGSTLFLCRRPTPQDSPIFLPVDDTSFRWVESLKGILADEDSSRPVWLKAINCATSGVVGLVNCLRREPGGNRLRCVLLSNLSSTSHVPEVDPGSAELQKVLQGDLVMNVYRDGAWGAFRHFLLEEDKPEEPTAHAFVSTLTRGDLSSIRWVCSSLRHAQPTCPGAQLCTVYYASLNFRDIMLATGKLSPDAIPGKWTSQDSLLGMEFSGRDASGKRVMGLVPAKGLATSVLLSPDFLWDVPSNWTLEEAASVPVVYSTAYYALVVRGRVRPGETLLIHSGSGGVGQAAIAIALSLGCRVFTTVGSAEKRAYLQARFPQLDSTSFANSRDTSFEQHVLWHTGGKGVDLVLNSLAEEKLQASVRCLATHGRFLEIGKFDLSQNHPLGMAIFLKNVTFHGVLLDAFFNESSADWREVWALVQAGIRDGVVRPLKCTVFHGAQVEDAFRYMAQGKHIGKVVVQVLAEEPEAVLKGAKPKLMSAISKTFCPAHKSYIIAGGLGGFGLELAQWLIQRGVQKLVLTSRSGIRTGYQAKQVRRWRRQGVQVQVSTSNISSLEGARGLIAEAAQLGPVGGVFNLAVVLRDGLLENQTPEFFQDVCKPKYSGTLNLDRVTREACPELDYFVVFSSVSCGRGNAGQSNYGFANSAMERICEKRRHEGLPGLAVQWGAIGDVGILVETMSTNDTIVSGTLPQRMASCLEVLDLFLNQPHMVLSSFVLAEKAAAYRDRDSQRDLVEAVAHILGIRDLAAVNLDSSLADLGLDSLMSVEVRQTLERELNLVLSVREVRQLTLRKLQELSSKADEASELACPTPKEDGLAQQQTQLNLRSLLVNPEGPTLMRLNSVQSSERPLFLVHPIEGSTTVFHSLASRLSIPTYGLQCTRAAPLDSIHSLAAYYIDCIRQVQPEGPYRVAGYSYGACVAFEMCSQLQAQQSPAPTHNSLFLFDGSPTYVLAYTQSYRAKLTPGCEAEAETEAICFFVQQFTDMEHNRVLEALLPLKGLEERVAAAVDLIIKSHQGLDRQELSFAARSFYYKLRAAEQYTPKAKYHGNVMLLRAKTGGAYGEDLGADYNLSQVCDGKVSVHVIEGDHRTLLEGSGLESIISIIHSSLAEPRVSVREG

In general, IC50 refers to the concentration that gives 50% inhibition. With `CC1CCN(S(=O)(=O)c2ccc(-c3csc(NC(=O)C4CC4)n3)cc2)CC1`, the IC50 was > 80000 nM (inactive).

As usually defined, the pIC50 is the negative decadic logarithm of the IC50, by convention in mol/L. Turning to `CCC(=O)Nc1nc(-c2ccc(S(=O)(=O)N3CCCC3)cc2)cs1`, the pIC50 was 6.19.

For the compound `CCN(CC)S(=O)(=O)c1ccc(-c2csc(NC(=O)C3CCCCC3)n2)cc1`, the negative logarithm of the IC50 (pIC50) is 5.50.

For the compound `O=C(Nc1nc(-c2ccc(S(=O)(=O)N3CCCC3)cc2)cs1)C1CCC1`, the negative logarithm of the IC50 (pIC50) was 6.46.

For `O=C(Nc1nc(-c2ccc(S(=O)(=O)N3CCOCC3)cc2)cs1)C1CCCC1`, the IC50 is > 80000 nM (inactive).

`O=C(Nc1nc(-c2ccc(S(=O)(=O)N3CCOCC3)cc2)cs1)C1CC1`: the pIC50 was 5.29.

For `CCC(CC)C(=O)Nc1nc(-c2ccc(S(=O)(=O)N3CCOCC3)cc2)cs1`, the pIC50 was 6.51.

Regarding `CCN(CC)S(=O)(=O)c1ccc(-c2csc(NC(=O)C3CCCC3)n2)cc1`, the pIC50 was 5.93.

As to `CC(C)(C)OC(=O)Nc1nc(-c2ccc(S(=O)(=O)N3CCOCC3)cc2)cs1`, the IC50 entry was “inactive”.

As for `CCC(C)C(=O)Nc1nc(-c2ccc(S(=O)(=O)N3CCOCC3)cc2)cs1` (centres undefined), the pIC50 was 6.54.

As to `CC1CCN(S(=O)(=O)c2ccc(-c3csc(NC(=O)C(C)C)n3)cc2)CC1`, the pIC50 was 6.19.

On to `CCCCC(=O)Nc1nc(-c2ccc(S(=O)(=O)N(CC)CC)cc2)cs1`, for which the pIC50 was 6.77.

Regarding `CCN(CC)S(=O)(=O)c1ccc(-c2csc(NC(=O)C(C)C)n2)cc1`, the pIC50 is 6.50.

For `CCCCC(=O)Nc1nc(-c2ccc(S(=O)(=O)N3CCCC3)cc2)cs1`, the pIC50 was 6.71.

For `CCCCC(=O)Nc1nc(-c2ccc(S(=O)(=O)N3CCSCC3)cc2)cs1`, the pIC50 was 6.19.

Consider `CC(C)CC(=O)Nc1nc(-c2ccc(S(=O)(=O)N3CCOCC3)cc2)cs1`, for which the negative logarithm of the IC50 (pIC50) is 5.18.

With `CCCCC(=O)Nc1nc(-c2ccc(S(=O)(=O)N3CCOCC3)cc2)cs1`, the pIC50 was 6.26.

For the compound `CC(=O)Nc1nc(-c2ccc(S(=O)(=O)N3CCOCC3)cc2)cs1`, the pIC50 was 4.92.

Regarding `CCC(=O)Nc1nc(-c2ccc(S(=O)(=O)N(C)C)cc2)cs1`, the pIC50 is 5.96.

Consider `CCCCC(=O)Nc1nc(-c2ccc(C(=O)N3CCOCC3)cc2)cs1`, for which the IC50 result is “inactive”.

As for `CCCCC(=O)Nc1nc(-c2cccc(S(=O)(=O)N3CCOCC3)c2)cs1`, the pIC50 is 4.74.

Turning to `CC(C)C(=O)Nc1nc(-c2ccc(S(=O)(=O)N(C)C)cc2)cs1`, the pIC50 was 6.25.

Consider `O=C(Nc1nc(-c2ccc(S(=O)(=O)N3CCOCC3)cc2)cs1)C1CCCCC1`, for which the IC50 is > 80000 nM (inactive).

As for `CN(C)S(=O)(=O)c1ccc(-c2csc(NC(=O)C3CCCC3)n2)cc1`, the pIC50 is 5.82.

On to `O=C(Nc1nc(-c2ccc(S(=O)(=O)N3CCCC3)cc2)cs1)C1CC1`, for which the pIC50 was 6.18.

On to `CCC(C)C(=O)Nc1nc(-c2ccc(S(=O)(=O)N(CC)CC)cc2)cs1` (centres undefined), for which the pIC50 was 6.53.

As to `CCC(=O)Nc1nc(-c2ccc(S(=O)(=O)N3CCC(C)CC3)cc2)cs1`, the IC50 is > 80000 nM (inactive).

On to `CCC(=O)Nc1nc(-c2ccc(S(=O)(=O)N3CCOCC3)cc2)cs1`, for which the pIC50 was 5.38.

For `O=C(Nc1nc(-c2ccc(S(=O)(=O)N3CCOCC3)cc2)cs1)C1CCC1`, the pIC50 was 5.46.

With `CN(C)S(=O)(=O)c1ccc(-c2csc(NC(=O)C3CC3)n2)cc1`, the pIC50 is 5.89.

On to `CCC(=O)Nc1nc(-c2ccc(S(=O)(=O)N(CC)CC)cc2)cs1`, for which the pIC50 was 5.40.

Turning to `CCN(CC)S(=O)(=O)c1ccc(-c2csc(NC(=O)C3CCC3)n2)cc1`, the pIC50 was 6.02.

With `CN(C)S(=O)(=O)c1ccc(-c2csc(NC(=O)C3CCC3)n2)cc1`, the pIC50 was 5.87.

For the compound `CCCCC(=O)Nc1nc(-c2ccc(S(=O)(=O)N3CCC(C)CC3)cc2)cs1`, the pIC50 was 6.27.

Regarding `CC(C)C(=O)Nc1nc(-c2ccc(S(=O)(=O)N3CCCC3)cc2)cs1`, the pIC50 was 6.53.

On to `CCN(CC)S(=O)(=O)c1ccc(-c2csc(NC(=O)C3CC3)n2)cc1`, for which the pIC50 was 5.61.

On to `CC(=O)Nc1nc(-c2ccc(S(=O)(=O)N3CCSCC3)cc2)cs1`, for which the IC50 was > 80000 nM (inactive).

Turning to `O=C(Nc1nc(-c2ccc(S(=O)(=O)N3CCCC3)cc2)cs1)C1CCCC1`, the pIC50 was 6.12.

For the compound `CC(C)C(=O)Nc1nc(-c2ccc(S(=O)(=O)N3CCOCC3)cc2)cs1`, the pIC50 is 6.06.

Source of the values: PubChem BioAssay AID652165 (Sanford-Burnham Center for Chemical Genomics, 2013).
